Results: patent US9834542B2, “LXR modulators” (BRISTOL-MYERS SQUIBB COMPANY, priority 2013, dated 2017)
pEC50: −log10 of the molar value.

Biological target: T1, LXRβ (Homo sapiens, UniProt P55055)
T1 construct: Co-transfection expression plasmids, comprising full-length LXRα (pCMX-h LXRα[…] or LXRβ (pCMX-hLXRβ)); expressed in transfected cells; host or cells: CV-1 African Green Monkey Kidney Cells
T1 sequence (P55055 1-460): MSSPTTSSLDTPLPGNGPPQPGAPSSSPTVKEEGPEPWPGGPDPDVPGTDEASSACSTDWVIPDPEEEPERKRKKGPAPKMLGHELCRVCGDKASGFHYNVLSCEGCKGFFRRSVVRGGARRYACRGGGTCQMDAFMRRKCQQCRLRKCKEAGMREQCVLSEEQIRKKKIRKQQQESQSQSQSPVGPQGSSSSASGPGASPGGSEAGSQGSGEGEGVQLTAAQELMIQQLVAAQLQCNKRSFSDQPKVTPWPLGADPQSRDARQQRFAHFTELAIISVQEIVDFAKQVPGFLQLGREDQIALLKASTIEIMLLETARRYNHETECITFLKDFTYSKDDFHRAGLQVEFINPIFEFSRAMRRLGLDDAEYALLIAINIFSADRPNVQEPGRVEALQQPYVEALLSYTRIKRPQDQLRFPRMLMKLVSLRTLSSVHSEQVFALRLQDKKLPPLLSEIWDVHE
T1 sequence (P19793 1-462 partner): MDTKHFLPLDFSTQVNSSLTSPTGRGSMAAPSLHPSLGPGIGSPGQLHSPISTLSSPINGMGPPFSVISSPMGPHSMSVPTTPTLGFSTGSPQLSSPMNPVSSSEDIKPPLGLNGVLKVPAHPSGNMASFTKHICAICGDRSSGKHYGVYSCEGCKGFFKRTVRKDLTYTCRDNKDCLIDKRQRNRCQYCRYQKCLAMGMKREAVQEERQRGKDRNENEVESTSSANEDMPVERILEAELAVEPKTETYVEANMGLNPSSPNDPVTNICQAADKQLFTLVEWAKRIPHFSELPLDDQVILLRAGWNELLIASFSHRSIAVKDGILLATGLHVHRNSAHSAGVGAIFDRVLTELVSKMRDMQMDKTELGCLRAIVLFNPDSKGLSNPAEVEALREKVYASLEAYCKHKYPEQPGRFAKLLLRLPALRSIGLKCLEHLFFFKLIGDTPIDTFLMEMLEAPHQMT
Experiment: Co-transfection assay (LXRE luciferase reporter), LXRβ
Format: cell-based
Settings: for pEC50: CV-1 cells transfected with pCMX-hLXRβ and LXREx1-Tk-Luciferase, 20 hours incubation; for Emax: LXRβ co-transfection, relative to high control 1-(2,4-difluorobenzyl)-2-oxo-6-(4-phenoxyphenyl)-4-(trifluoromethyl)-1,2-dihydropyridine-3-carbonitrile, read-out: % Efficacy
Procedure, shortened: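 Luciferase signal from an LXREx1-Tk reporter was measured after transfected CV-1 cells (full-length hLXRβ, endogenous RXR) were treated with compounds for 20 h at 37 °C, ≤0.5% DMSO. EC50 came from four-parameter fits of 11-point ½-log curves; % efficacy versus a reference agonist maximum.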

Row | Compound | pEC50 | Emax [%]
1 | Cc1nc(C2CC2)cn1-c1ccc(-c2cccc(S(C)(=O)=O)c2)cc1-n1nncc1-c1ccc(OC(F)(F)F)cc1 [Example 229, 1-(4-(4-cyclopropyl-2-methyl-1H-imidazol-1-yl)-3′-(methylsulfonyl)-[1,1′-biphenyl]-3-yl)-5-(4-(trifluoromethoxy)phenyl)-1H-1,2,3-triazole] | 6.02 | 72
2 | Cc1nc(C(F)(F)F)cn1-c1ccc(-c2ccc(CO)c(S(C)(=O)=O)c2)cc1-c1nc(CC(C)C)oc1-c1ccc(OC(F)(F)F)cc1 [Example 563, (3′-(2-isobutyl-5-(4-(trifluoromethoxy)phenyl)oxazol-4-yl)-4′-(2-methyl-4-(trifluoromethyl)-1H-imidazol-1-yl)-3-(methylsulfonyl)-[1,1′-biphenyl]-4-yl)methanol] | 7.89 | 70
3 | Cc1nc(-c2cc(-c3cccc(S(C)(=O)=O)c3)ccc2-n2cc(C(F)(F)F)nc2C)c(-c2ccc(SC(F)(F)F)cc2)o1 [Example 571, 2-methyl-4-(4-(2-methyl-4-(trifluoromethyl)-1H-imidazol-1-yl)-3′-(methylsulfonyl)-[1,1′-biphenyl]-3-yl)-5-(4-((trifluoromethyl)thio)phenyl)oxazole] | 6.80 | 49
